According to a melting point compilation (Tetko et al.; mined from patent text by program, amines drawn as free bases though some values may be those of a salt):

Row | melting point [°C] | Structure (SMILES)
1 | > 300 | CCOC(=O)Nc1c(Cl)cc2nc(O)c(O)nc2c1[N+](=O)[O-]
2 | 120 | COCc1cc(-c2ccccc2)c(=O)n2c1-c1sccc1CC2
3 | 107 to 110 | CCOC(=O)C[C@@H]1C(=O)N(S(=O)(=O)c2ccc(OC)cc2)C=C[C@@H]1c1ccc(OC)cc1
4 | 92 to 93 | COC(=O)c1ccccc1-c1cc(-c2ccc(OC)cc2)[nH]n1
5 | 232 to 233 | COc1cc(C=NNC2=NCCc3ccccc32)cc(OC)c1O
6 | 243 to 244 | O=C(O)c1ccc2c(c1)nc(-c1ccc(OCc3cc(Cl)ccc3-c3ccc(Cl)cc3)cc1)n2C1CCCCC1
7 | 138 to 140 | COc1ccc2cccc(C(CO)CNC(=O)C(F)(F)F)c2c1 (centres undefined)
8 | 219 to 220 | C[C@@H]1O[C@](C#CC2CC2)(C(F)(F)F)c2c(ccc(F)c2F)NC1=O (relative stereo)
9 | 129 to 131 | COc1ccc(-c2ccc(C(C)=O)cc2[N+](=O)[O-])c(OC)c1
10 | 62 to 63 | C=CCNc1nc(C)cc(C)n1
11 | 55 to 57 | CC(C)c1ccc(C(=O)C2CCNCC2)cc1
12 | 92 to 94 | Cc1ccc(CN2C(=O)C(CCO)Oc3ccccc32)cc1 (centres undefined)
13 | 100 to 104 | COc1ccc(C(O)Cc2c(Cl)cncc2Cl)c2c1OC(C)(C)C2 (centres undefined)
14 | 137 to 138 | CCC#COc1ccc(S(=O)(=O)NC(CSCc2ccccc2)C(=O)NO)cc1 (centres undefined)
15 | 169 to 170 | CCOC(=O)c1cc2ccccc2n(-c2c(Cl)cccc2Cl)c1=N
16 | 200 to 201 | Cc1cc(C#N)cc(C(=O)c2c(C(C)C)c(=O)[nH]c(=O)n2CC(C)C)c1
17 | 117 to 119 | COC(=O)N[C@@H]1Cc2ccccc2N(OC)C1=O
18 | 204 to 205 | Cc1cc(C#N)cn2cc(-c3ccc(Br)o3)nc12
19 | 73 | FC(F)(F)c1ccc(-c2ccc(CCl)cn2)cc1
20 | 154 | O=C(Nc1cccc2[nH]ccc12)c1ccccc1OCCN1CCCCC1
21 | 121 to 122 | COc1ccc([N+](=O)[O-])c(NCCO)n1
22 | 202 to 205 | CC(=O)Nc1nc2c(c(=O)[nH]1)CCC(O)N2C(C)=O (centres undefined)
23 | 217 to 219 | CCc1c(C(=O)NN2CCCCC2)nc(-c2ccccc2Cl)n1-c1ccc(Cl)cn1

Row | melting point [°C] | Structure (SMILES)
24 | 78 to 79 | CCCC[C@H](NC(=O)[C@H](CCC(=O)OC(C)(C)C)NC(=O)OCc1ccccc1)C(=O)CSCc1ccco1
25 | 60 to 61 | CCC(=O)c1ccc(SC)cc1
26 | 105 to 110 | COc1ccc(S(=O)(=O)N2Cc3ccccc3N(C(=O)c3cccc(C(F)(F)F)c3)CC2C(=O)O)cc1 (centres undefined)
27 | 130 | O=[N+]([O-])c1ccc(O)c(-c2ccsc2)c1
28 | 204 to 206 | COc1cc(C(=O)NS(=O)(=O)c2ccccc2Cl)ccc1Cc1c(Cl)n(C)c2ccc(CCNC(=O)N(C)C)cc12
29 | 130 to 132 | O=C(CN(C(=O)c1cccc(C(F)(F)F)c1)c1ccccc1)Nc1ccc(Cl)c(Cl)c1
30 | 163 to 166 | CCN(CCCc1ccccc1)[C@H]1CC[C@H](c2ccc(O)cc2)CC1
31 | 167 to 169 | COCC(=O)NNC(=O)N1Cc2ccccc2Oc2ccc(Cl)cc21
32 | 140 | Cc1c(O)c(C(C)(C)C)c(Cc2cc(C(C)(C)C)c(O)c(C(C)(C)C)c2)c(C)c1Cc1cc(C(C)(C)C)c(O)c(C(C)(C)C)c1
33 | 290 to 292 | COc1ccc(-c2c3c(cc4ccc(OC)cc24)C(=O)NC3=O)cc1
34 | 204 to 206 | CC(C)Oc1nc(N)nc2[nH]cnc12
35 | 114 | C=CCc1c(Br)cc(C(C)(C)c2cc(Br)c(CC=C)c(Br)c2)cc1Br
36 | 139 | CCOC(=O)c1nc(C)c(SC)c(O)n1
37 | 161 to 163 | COC(=O)c1ccccc1-c1ccc(N(C)C)cn1
38 | 150 to 157 | CC12C=CCC1C1CC(O)c3cc(O)ccc3C1CC2 (centres undefined)
39 | 139 to 140 | Cn1cnc2c1c(=O)n(CCCO)c(=O)n2C
40 | 132 to 134 | CCCCc1ccc(NC=NO)c(C)c1
41 | 79 | CCCCCCCNC(=O)N(C)c1cccc(-c2ccc(C=C(C)C(=O)O)cc2)c1
42 | 199 to 202 | COC(=O)CSc1nc(N2CCN(c3ccccn3)CC2)ncc1[N+](=O)[O-]
43 | 108 to 109 | COC(=O)CC(Cc1c[nH]c2ccccc12)(NC(=O)OC1C2CC3CC(C2)CC1C3)C(=O)O (centres undefined)
44 | 66 to 67 | O=C(OCCCCCCc1ccc(OCc2ccc(Cl)cc2)cc1)c1cccnc1
45 | 141 to 142 | COc1ccc2[nH]c(-c3nc(C)no3)cc2c1

Further lines, the compound ahead of its results:

Row | Structure (SMILES) | melting point [°C]
46 | CS(=O)(=O)c1ccc(-c2cnn(-c3ccc(F)c(F)c3)c(=O)c2Cc2ccccc2)cc1 | 166 to 168
47 | COc1ccccc1N1CCN(CC(O)COc2ccccc2CN)CC1 (centres undefined) | 113 to 114
48 | CC1(C)CCC(C)(C)c2c(CC#Cc3ccc(C(=O)O)cc3)cc(-c3ccccc3)cc21 | 228
49 | CC(C)(C)OC(=O)N[C@H]1CC[C@H](ON2C(=O)c3ccccc3C2=O)CC1 | 134 to 135
50 | O=S(=O)(Br)c1ccc(Cl)s1 | 35 to 37
51 | CC=CC(c1ccc2c(c1)nnn2C)n1ccnc1 (centres undefined) | 104
52 | Nc1ccc(-n2cc(C(=O)O)c(=O)cc2-c2ccc3ccccc3c2)cc1 | 148 to 151
53 | NC(C=C(Cc1ccccc1)CP(=O)(O)O)C(=O)O (centres undefined) | 196 to 198
54 | O=C1Nc2cc(C(F)(F)F)ccc2N2CCN(CCc3ccncc3)CC12 (centres undefined) | 204 to 206
55 | Cc1ccc(S(=O)(=O)N2CC2CCOS(C)(=O)=O)cc1 (centres undefined) | 78 to 80
56 | CC1(Oc2ccc(N)cc2)C2CC3CC(C2)CC1C3 (centres undefined) | 95.6 to 97.9
57 | CC(=O)c1c(-c2ccc(Cl)cc2)c(-c2ccc(Cl)cc2)n[nH]c1=O | 267 to 269
58 | O=c1c(C=NO)c(Cl)nc2n1CCS2 | 148 to 150
59 | CCN1C(=O)COc2ccc(-c3nn[nH]c3-c3cccc(C)n3)cc21 | 187
60 | COc1cccc2sc(C(N)=O)c(N)c12 | 151 to 153
61 | O=C(O)c1cc2nc(C(F)(F)F)ccc2n1Cc1cccc(F)c1 | 254 to 255
62 | Nc1nc(-c2ccnc(-c3ccc(N4CCOCC4)cc3)c2)c(-c2ccccn2)s1 | 276
63 | CC(C)c1ccc([N+](=O)[O-])c(C(C)C)c1NC(=O)CN1CCN(CCSc2nc3cccc(C(F)(F)F)c3o2)CC1 | 115 to 117
64 | CSc1ccc(C2=C(Br)CCC2)cc1 | 52 to 54
65 | Cc1ccc(N)c(C(=O)CS(C)=O)c1 (centres undefined) | 145 to 147

Row | Structure (SMILES) | melting point [°C]
66 | COC(=O)COc1cccc2c1c(C(=O)C(N)=O)c(C)n2Cc1ccccc1 | 202 to 215
67 | COC1=C(OC)C(=O)C(CO)=C(C)C1=O | 52 to 54
68 | Cc1cc(Oc2c(Cl)cc(C(F)(F)F)cc2Cl)ccc1S(=O)(=O)C(F)(F)F | 121 to 122
69 | CS(=O)(=O)OC[C@H]1CCn2c(cc3ccccc32)C1 | 114 to 115
70 | CC(C)(C)CC(C)(C)C(CCC(=O)O)CC(=O)O (centres undefined) | 135 to 137
71 | Clc1ccc(-c2nnc(Cl)s2)cc1 | 125 to 127
72 | CCCCCCCCCCCCCC(O)c1nc2ncccc2o1 (centres undefined) | 52 to 54
73 | O=C1NCCN1N=Cc1ccccc1 | 201 to 206
74 | Nc1cnn(CCO)c1N | 158 to 160
75 | CCO/C(=C(/Oc1ccc(-c2ccc(Cl)cc2)cc1)n1ccnc1)C(C)(C)C | 112 to 113
76 | CCOC(=O)c1cnc(Cl)c2c(C)n[nH]c12 | 180
77 | CC(=O)NC[C@H]1CN(c2ccc(N3CCC4(CC3)CS4)c(F)c2)C(=O)O1 | 152 to 154
78 | CNC(=O)c1cc(Oc2ccc(NC(=O)Nc3ccc(Br)c(C(F)(F)F)c3)cc2)ccn1 | 203 to 205
79 | CCN(C)c1nc2sc3c(NCc4ccccn4)ncnc3c2c2c1CCC(C)(C)C2 | 152
80 | CCNC(=NC#N)NC | 120 to 124
81 | CC(C)(Oc1ccc(NC(=O)Nc2cc(Cl)cc(Cl)c2)cc1)C(=O)O | 182 to 184
82 | O=C(c1ccc(O)cc1)c1ccc([N+](=O)[O-])cc1 | 196
83 | Cn1c2c(ccc1=O)C(NCCc1ccc([N+](=O)[O-])cc1)CCC2 (centres undefined) | 138 to 139
84 | COc1cc(OC)c2c(=O)cc(S)oc2c1C1CCN(C)CC1O (centres undefined) | 184 to 185
85 | COC(=C1C2CC3CC1CC(Cl)(C3)C2)c1cc(O)cc(Cl)c1 | 130

Row | Structure (SMILES) | melting point [°C]
86 | CCOC(=O)CCN1CCN(CC=CC(=O)Nc2cc3c(Nc4ccc(F)c(Cl)c4)ncnc3cc2OCC2CC2)CC1 | 183 to 185
87 | Cc1nn(C)c(=O)n1-c1ccccc1COc1ccn(-c2ccc(Cl)cc2)n1 | 107 to 108
88 | CCOc1ccc2c(c1)C(C)(c1ccccc1Cl)C(=O)N2S(=O)(=O)c1ccc(C(=O)NC(C)(C)CF)cc1 (centres undefined) | 182
89 | O=C(CCS)N[C@@H](Cc1ccccc1)C(=O)O | 106 to 107
90 | CCCc1ccnc2c(=O)[nH]c(-c3cc(N)ccc3OCC)nc12 | 156 to 158
91 | O=C(O)c1ccc(N2C(=O)CCC2(CO)CO)cc1 | 195 to 197
92 | CCOC(=N)c1cccc(C)c1OC | 93 to 96
93 | COCCn1cc(C(=O)NCc2ccc(Cl)cc2)c(=O)c2cc(CCl)sc21 | 192 to 193
94 | C=CCNC(=O)N1CC(Oc2cccc(Cl)c2)C1 | 87 to 89
95 | CC1CCc2c(N3CCC(O)CC3)ccc3c(=O)c(C(=O)O)cn1c23 (centres undefined) | 238 to 240
96 | O=C(Nc1cccc2c1C(=O)c1c-2n[nH]c1C1CCN(C(=O)N2C[C@@H]3C[C@H]2CN3)CC1)NN1CCOCC1 | 196 to 198
97 | CCOC(=O)C1=C(COCCNS(N)(=O)=O)NC(C)=C(C(=O)OC)C1c1cccc(Cl)c1Cl (centres undefined) | 89 to 90
98 | COc1ccc2c(c1)CCC1C2CCC2(C)C(OC(C)(C)C)CCC12 (centres undefined) | 91 to 92.5
99 | COC(=O)c1cc2cc3c(cc2[nH]1)OCC(=O)N3 | 188 to 196
100 | CCOC(=O)C(=O)N(c1ccccc1)c1ccc(OC)cc1OC | 142 to 144
101 | O=C(O)c1cccc2nnsc12 | 239 to 240
102 | N#Cc1ccc2[nH]cc(C3=CCN(CC4COc5cccnc5O4)CC3)c2c1 (centres undefined) | 165
103 | CC(=O)OC(C)c1ccc2cc(OCc3ccccc3)ccc2c1 (centres undefined) | 97 to 98
104 | O=C(O)C(Cc1ccc2ccccc2c1)NC(=O)C(CS)C(F)(F)F (centres undefined) | 165 to 167
